Laboratory results: patent EP0489581A2, “Cosmetic composition” (UNILEVER PLC, priority 1990, dated 1992)

Experiments:
head, forehead and neck = assay: Half-head wash with ethyl nicotinate shampoo against placebo shampoo (erythema meter, Cyclops pyrometer, sensations); assay type: in vivo, human
Experimental: EXPERIMENTS WITH ETHYL NICOTINATE ESTER IN SHAMPOO Five subjects washed one side of the head, forehead and neck with a shampoo the same as in Example 5 but containing a varying level of ethyl nicotinate for a period ranging from one to five minutes, whilst the other side was washed with a placebo shampoo of corresponding composition. The changes occurring on the various symmetrical sites around the head were assessed with the erythema meter and a "Cyclops" pyrometer in sequence. The readings were continued for between 45 minutes and one hour.

hair growth = assay: Observation of hair growth with ethyl nicotinate in a shampoo; assay type: in vivo; conditions: included in a shampoo, in the absence of any other hair growth promoter

Q: Which results are given for `CCOC(=O)c1cccnc1` [EtNic, ethyl nicotinate]?
A: temperature (head, forehead and neck; active sites against placebo sites, Cyclops pyrometer, wash of one to five minutes): either rose or did not fall so low as the placebo sites; redness (head, forehead and neck; active sites against placebo sites, erythema meter, wash of one to five minutes): increased the redness; longer term sensations of a pleasant nature, duration after treatment (head, forehead and neck; crown of the head): up to two; hair growth (hair growth): promote hair growth
